Results published in US10041115B2, “3′-OH unblocked, fast photocleavable terminating nucleotides and methods for nucleic acid sequencing” (LASERGEN, INC., priority 2011, dated 2018).

What was measured:
[1] = Photochemical cleavage assays of incorporated nucleotide analogs (365 nm UV light, DT50); assay type: physicochemical; settings: for DT50 in 1 mM NaN3, 50 mM DTT / DT50 in 1 mM NaN3, No DTT: 365 nm UV, 0.70 W/cm^2; for faster photochemical cleavage rates of ds2 isomers compared with their ds1 counterparts, factor: ds2 vs ds1 isomer of the same analog
Method: As used herein, the term “DT50” refers to the amount of time required to cleavage 50% of the base analog incorporated in the primer-template complex.
To compare the rates of photochemical cleavage between the nucleotide analogs described here, a protocol was developed to deliver a daily light intensity output of 0.70±0.01 W/cm^2 to samples, see below.
The power supply was turned on for about 30 min prior to that of the lamp and recirculation bath as described by the manufacturer. The IR liquid filter was cooled to 9° C. Light intensity was determined using a model PM100 power meter (Thorlabs), a 1000 μm pinhole (Edmund Optics), a modified 0.5 mL Eppendorf tube cut in half, and a 3-axis manual translation stage (Newport), see FIG. 5. The half cut Eppendorf tube was positioned in front of the pinhole and power meter detector head to account for the geometric shape distortion of the light as it passes through a reaction solution. The translation stage was then used to align the tube/pinhole/detector device with the highest intensity from the arc beam.
To stabilize its output, the lamp was left on for one hour prior to intensity measurements. Thereafter, the measured power was adjusted by increasing the current from the power supply. In order to achieve intensity (I) of 0.70 W/cm^2, the measured power (P) was adjusted to ˜5.5 mW, according to the equation:
[formula] where r is the radius of pinhole.
The beam was then focused by placing an 0.5 mL Eppendorf tube into the sample holder, the tube of which was modified with an internal alignment card to provide reference lines for volume heights of 10 μL and 20 μL, see FIG. 5. The reference lines enabled the beam to be centered for a given reaction volume. Beam alignment was further verified by observing the mercury arc image of the lamp produced by the rear reflector. A second alignment card was placed into the rotating sample holder to view the image, which when properly aligned using the reflector would produce an inverted arc image on the arc gap itself. This step ensured that arc hotspots were not superimposed, which could cause overheating while maintaining a power output of ˜5.5 mW. The speed of the rotating sample holder was adjusted within a range of 1,200-1,350 rpm using a Nova-Strobe DA Plus stroboscope (Monarch Instrument) by adjusting the motor's torque with an adjustment screw.
Photochemical cleavage assays: Nucleotide analogs were incorporated using 10 μL reactions, as described for the PEP assays, at a final concentration of 100 nM. […] OligoTemplate-2, oligoTemplate-5, and oligoTemplate-4 each hybridized with BODIPY-FL labeled primer-1 were used for C^7-HOMedA, C^7-HOMedG, and HOMedU analogs, respectively. OligoTemplate-8 hybridized with BODIPY-FL labeled primer-3 was used to assay HOMedC analogs. Incorporated reactions were quenched with either 1 mM sodium azide solution; 1 mM sodium azide, 50 mM DTT solution; or reagents C-G (see key in FIG. 4), exposed to 365 nm ultraviolet (UV) light for various time points using our UV deprotector, and then placed on ice.

DNA synthesis = experiment: Termination assays (incorporation and termination of DNA synthesis); assay type: biochemical; settings: 10 μM
Text: Another class of 3′-OH unblocked nucleotides has been described by Mitra et al. (2003) and Turcatti et al. (2008), which rely on steric hindrance of the bulky dye group to stop incorporation after the addition of the first nucleotide. It is noted that the substituted 2-nitrobenzyl nucleotide analogs described by Wu et al. (2007), Litosh et al. (2011), and Gardner et al., 2012 cause termination of DNA synthesis without the requirement of bulky substituents such as fluorescent dyes. A further class of 3′-unblocked nucleotides has been described by Helicos Biosciences. These nucleotides use a second nucleoside or nucleotide analog that acts as an inhibitor of DNA synthesis (Bowers et al., 2009; U.S. Pat. No. 7,476,734). A significant difference in termination properties is observed when comparing compounds of the present invention with those described by Bowers. For example, Bowers et al. described pre-steady-state kinetics employing two-base homopolymer templates, for which kpol(+2) rates were measured for all of their 3′-OH unblocked ‘virtual’ terminators. Bowers et al. conducted their termination experiments at submicromolar nucleotide concentrations (i.e., from 100 to 250 nM), termination assays. In contrast, several compounds of the present invention were performed at 10 μM over the time course of 0.5 to 20 min. […]

[2] = Table 2, C^7-HOMedG analogs, average ± 1SD, triplicate
[3] = Table 3, reversible terminators
[4] = Table 3, reversible terminators, [a] transient product considered as cleaved product
[5] = Table 1, C^7-HOMedA analogs, average ± 1SD, triplicate
[6] = α-tert-butyl C^7-HOMedG analogs, ds1 isomers

| SMILES | DT50 in 1 mM NaN3, 50 mM DTT [1, 2] [s] | DT50 in 1 mM NaN3, No DTT [1, 2] [s] | faster photochemical cleavage rates of ds2 isomers compared with their ds1 counterparts, factor [1] [×] | DT50 in 1 mM NaN3, 50 mM DTT [1, 3] [s] | DT50 in 1 mM NaN3, No DTT [1, 4] | also measured |
| --- | --- | --- | --- | --- | --- | --- |
| CC(C)(C)C(OCc1cn([C@H]2C[C@H](O)[C@@H](COP(=O)(O)OP(=O)(O)OP(=O)(O)O)O2)c2nc(N)[nH]c(=O)c12)c1ccccc1[N+](=O)[O-] (single isomer, unassigned) [dG.V.a ds2, 7-[1-(2-nitrophenyl)-2,2-dimethyl-propyloxy]methyl-7-deaza-2′-deoxyguanosine-5′-triphosphate] | 3.5 ± 0.3 | 3.6 ± 0.3 | 3.1 | – | – | – |
| COc1ccc([N+](=O)[O-])c([C@@H](OCc2cn([C@H]3C[C@H](O)[C@@H](COP(=O)(O)OP(=O)(O)OP(=O)(O)O)O3)c3ncnc(N)c23)C(C)(C)C)c1 [dA.VI, 7-[(S)-1-(5-methoxy-2-nitrophenyl)-2,2-dimethyl-propyloxy]methyl-7-deaza-2′-deoxyadenosine-5′-triphosphate] | – | – | – | 0.8 ± 0.1 | 0.8 ± 0.1^[a] sec | – |
| CC(C)C(OCc1cn([C@H]2C[C@H](O)[C@@H](COP(=O)(O)OP(=O)(O)OP(=O)(O)O)O2)c2ncnc(N)c12)c1ccccc1[N+](=O)[O-] (single isomer, unassigned) [dA.III.a ds1, 7-[1-(2-nitrophenyl)-2-methyl-propyloxy]methyl-7-deaza-2′-deoxyadenosine-5′-triphosphate] | – | – | – | – | – | DT50 in 1 mM NaN3, 50 mM DTT [1, 5]: 4.4 ± 0.2 s; DT50 in 1 mM NaN3, No DTT [1, 5]: 4.5 ± 0.2 s; DT50 value of ds1 isomer compared with the parent dA.I analog ([1]; ds1 isomers of the α-isopropyl C^7-HOMedA set): higher |
| COc1ccc([N+](=O)[O-])c([C@@H](OCc2cn([C@H]3C[C@H](O)[C@@H](COP(=O)(O)OP(=O)(O)OP(=O)(O)O)O3)c(=O)[nH]c2=O)C(C)(C)C)c1 [dU.VI, 5-[(S)-1-(5-Methoxy-2-nitrophenyl)-2,2-dimethyl-propyloxy]methyl-2′-deoxyuridine-5′-triphosphate] | – | – | – | 0.7 ± 0.1 | 0.7 ± 0.1^[a] sec | incorporated at the first base position (DNA synthesis; by 2 min): 100%; signal at the expected second-base position (termination of DNA synthesis) (DNA synthesis; incubation times up to 20 min): No appreciable signal could be detected |
| COc1cc(C(OCc2cn([C@H]3C[C@H](O)[C@@H](COP(=O)(O)OP(=O)(O)OP(=O)(O)O)O3)c3nc(N)[nH]c(=O)c23)C(C)(C)C)c([N+](=O)[O-])cc1OC (single isomer, unassigned) [dG.V.d ds1, 7-[1-(4,5-dimethoxy-2-nitrophenyl)-2,2-dimethyl-propyloxy]methyl-7-deaza-2′-deoxyguanosine-5′-triphosphate] | 2.3 ± 0.2 | 2.4 ± 0.1 | – | – | – | faster cleavage rates compared with mono-substituted 4-OMe isomer [1, 6]: 2.0 ×; faster cleavage rates compared with mono-substituted 5-OMe isomer [1, 6]: 1.5 × |
| COc1ccc(C(OCc2cn([C@H]3C[C@H](O)[C@@H](COP(=O)(O)OP(=O)(O)OP(=O)(O)O)O3)c3nc(N)[nH]c(=O)c23)C(C)(C)C)c([N+](=O)[O-])c1 (single isomer, unassigned) [dG.V.b ds2, 7-[1-(4-methoxy-2-nitrophenyl)-2,2-dimethyl-propyloxy]methyl-7-deaza-2′-deoxyguanosine-5′-triphosphate] | 1.3 ± 0.2 | 1.1 ± 0.1 | 4.5 | – | – | – |
| Nc1ncnc2c1c(COCc1ccccc1[N+](=O)[O-])cn2[C@H]1C[C@H](O)[C@@H](COP(=O)(O)OP(=O)(O)OP(=O)(O)O)O1 [dA.I, 7-(2-nitro-benzyloxy)methyl-7-deaza-2′-deoxyadenosine-5′-triphosphate] | – | – | – | 3.5 ± 0.1 | 3.6 ± 0.1 s | DT50 in 1 mM NaN3, 50 mM DTT [1, 5]: 3.5 ± 0.1 s; DT50 in 1 mM NaN3, No DTT [1, 5]: 3.6 ± 0.1 s |
| COc1ccc([N+](=O)[O-])c(C(OCc2cn([C@H]3C[C@H](O)[C@@H](COP(=O)(O)OP(=O)(O)OP(=O)(O)O)O3)c3nc(N)[nH]c(=O)c23)C(C)(C)C)c1 (single isomer, unassigned) [dG.V.c ds2, 7-[1-(5-methoxy-2-nitrophenyl)-2,2-dimethyl-propyloxy]methyl-7-deaza-2′-deoxyguanosine-5′-triphosphate] | 0.8 ± 0.1 | 0.8 ± 0.1 | 4.4 | – | – | DT50 values ([1]; UV photochemical cleavage experiments): 0.8 s; rate increases, dG.V.c compared with dG.V.a ([1]; same isomer (ds1 or ds2) of dG.V.c vs dG.V.a): 4.4 ×; faster photochemical cleavage rates compared with the corresponding 4-OMe isomers ([1]; α-tert-butyl C^7-HOMedG analogs, 5-OMe vs 4-OMe): 1.4 × fold |
